According to patent US10251395B2, “Substituted furano-/thienocycloalkylamino-2-pyrimidine derivatives and use thereof for controlling undesired plant growth” (Bayer CropScience Aktiengesellschaft, priority 2015, dated 2019):

Columns and labels:
Abutilon theophrasti [1] = assay: Pre-emergence herbicidal effect; assay type: in vivo; conditions: scored visually after 3 weeks
How it was run: (§1)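 Greenhouse pre-emergence test: compound sprayed onto covering soil over sown seeds, assessed by eye after 3 weeks. Scale runs from 0% (like control) to 100% (plants died).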

Alopecurus myosuroides [2] = assay: Pre-emergence herbicidal effect; assay type: in vivo; conditions: scored visually after 3 weeks
How it was run: as §1

Amaranthus retroflexus [3] = assay: Pre-emergence herbicidal effect; assay type: in vivo; conditions: scored visually after 3 weeks
How it was run: as §1

Avena fatua [4] = assay: Pre-emergence herbicidal effect; assay type: in vivo; conditions: Dosage 320 g/ha, scored visually after 3 weeks
How it was run: as §1

Echinochloa crus-galli [5] = assay: Pre-emergence herbicidal effect; assay type: in vivo; conditions: scored visually after 3 weeks
How it was run: as §1

Ipomoea purpurea [6] = assay: Pre-emergence herbicidal effect; assay type: in vivo; conditions: scored visually after 3 weeks
How it was run: as §1

Lolium multiflorum [7] = assay: Pre-emergence herbicidal effect; assay type: in vivo; conditions: scored visually after 3 weeks
How it was run: as §1

Matricaria inodora [8] = assay: Pre-emergence herbicidal effect; assay type: in vivo; conditions: scored visually after 3 weeks
How it was run: as §1

Polygonum convolvulus [9] = assay: Pre-emergence herbicidal effect; assay type: in vivo; conditions: scored visually after 3 weeks
How it was run: as §1

Setaria viridis [10] = assay: Pre-emergence herbicidal effect; assay type: in vivo; conditions: scored visually after 3 weeks
How it was run: as §1

Stellaria media [11] = assay: Pre-emergence herbicidal effect; assay type: in vivo; conditions: scored visually after 3 weeks
How it was run: as §1

Veronica persica [12] = assay: Pre-emergence herbicidal effect; assay type: in vivo; conditions: scored visually after 3 weeks
How it was run: as §1

Viola tricolor [13] = assay: Pre-emergence herbicidal effect; assay type: in vivo; conditions: scored visually after 3 weeks
How it was run: as §1

Abutilon theophrasti [14] = assay: Post-emergence herbicidal effect; assay type: in vivo; conditions: assessed visually after about 3 weeks vs untreated controls
How it was run: (§2)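 Herbicidal effect was rated visually roughly 3 weeks after foliar treatment, as % versus untreated plants, with 0% meaning the same as controls and 100% meaning dead. Plants were treated at the one-leaf stage in the greenhouse with aqueous WP or EC sprays at 600–800 L/ha containing 0.2% wetter.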

Alopecurus myosuroides [15] = assay: Post-emergence herbicidal effect; assay type: in vivo; conditions: assessed visually after about 3 weeks vs untreated controls
How it was run: as §2

Amaranthus retroflexus [16] = assay: Post-emergence herbicidal effect; assay type: in vivo; conditions: assessed visually after about 3 weeks vs untreated controls
How it was run: as §2

Avena fatua [17] = assay: Post-emergence herbicidal effect; assay type: in vivo; conditions: assessed visually after about 3 weeks vs untreated controls
How it was run: as §2

Echinochloa crus-galli [18] = assay: Post-emergence herbicidal effect; assay type: in vivo; conditions: assessed visually after about 3 weeks vs untreated controls
How it was run: as §2

Ipomoea purpurea [19] = assay: Post-emergence herbicidal effect; assay type: in vivo; conditions: assessed visually after about 3 weeks vs untreated controls
How it was run: as §2

Lolium multiflorum [20] = assay: Post-emergence herbicidal effect; assay type: in vivo; conditions: assessed visually after about 3 weeks vs untreated controls
How it was run: as §2

Matricaria inodora [21] = assay: Post-emergence herbicidal effect; assay type: in vivo; conditions: assessed visually after about 3 weeks vs untreated controls
How it was run: as §2

Polygonum convolvulus [22] = assay: Post-emergence herbicidal effect; assay type: in vivo; conditions: assessed visually after about 3 weeks vs untreated controls
How it was run: as §2

Setaria viridis [23] = assay: Post-emergence herbicidal effect; assay type: in vivo; conditions: assessed visually after about 3 weeks vs untreated controls
How it was run: as §2

Stellaria media [24] = assay: Post-emergence herbicidal effect; assay type: in vivo; conditions: assessed visually after about 3 weeks vs untreated controls
How it was run: as §2

Veronica persica [25] = assay: Post-emergence herbicidal effect; assay type: in vivo; conditions: assessed visually after about 3 weeks vs untreated controls
How it was run: as §2

Viola tricolor [26] = assay: Post-emergence herbicidal effect; assay type: in vivo; conditions: assessed visually after about 3 weeks vs untreated controls
How it was run: as §2

logP (HCOOH) = assay type: physicochemical; conditions: for chromatographic logP: HCOOH (formic acid)
Text: Table 2 (physicochemical characterization of selected synthesis examples)

Cyperus esculentus = assay: Pre-emergence herbicidal effect; assay type: in vivo; conditions: Dosage 320 g/ha, scored visually after 3 weeks
How it was run: as §1

## Cc1cc2c(s1)CCCC2Nc1ncc(C(F)(F)F)c(N)n1 (racemic) [compound 257]
Abutilon theophrasti [1]; Dosage 80 g/ha
  ABUTH pre-emergence efficacy (herbicidal activity): 70%
Abutilon theophrasti [1]; Dosage 320 g/ha
  ABUTH pre-emergence efficacy (herbicidal activity): 100%
Alopecurus myosuroides [2]; Dosage 80 g/ha
  ALOMY pre-emergence efficacy (herbicidal activity): 100%
Alopecurus myosuroides [2]; Dosage 320 g/ha
  ALOMY pre-emergence efficacy (herbicidal activity): 100%
Amaranthus retroflexus [3]; Dosage 80 g/ha
  AMARE pre-emergence efficacy (herbicidal activity): 100%
Amaranthus retroflexus [3]; Dosage 320 g/ha
  AMARE pre-emergence efficacy (herbicidal activity): 100%
Avena fatua [4]
  AVEFA pre-emergence efficacy (herbicidal activity): 100%
Echinochloa crus-galli [5]; Dosage 80 g/ha
  ECHCG pre-emergence efficacy (herbicidal activity): 100%
Echinochloa crus-galli [5]; Dosage 320 g/ha
  ECHCG pre-emergence efficacy (herbicidal activity): 100%
Ipomoea purpurea [6]; Dosage 320 g/ha
  PHBPU pre-emergence efficacy (herbicidal activity): 100%
Lolium multiflorum [7]; Dosage 80 g/ha
  LOLMU pre-emergence efficacy (herbicidal activity): 100%
Lolium multiflorum [7]; Dosage 320 g/ha
  LOLMU pre-emergence efficacy (herbicidal activity): 100%
Matricaria inodora [8]; Dosage 80 g/ha
  MATIN pre-emergence efficacy (herbicidal activity): 100%
Matricaria inodora [8]; Dosage 320 g/ha
  MATIN pre-emergence efficacy (herbicidal activity): 100%
Polygonum convolvulus [9]; Dosage 80 g/ha
  POLCO pre-emergence efficacy (herbicidal activity): 100%
Polygonum convolvulus [9]; Dosage 320 g/ha
  POLCO pre-emergence efficacy (herbicidal activity): 100%
Setaria viridis [10]; Dosage 80 g/ha
  SETVI pre-emergence efficacy (herbicidal activity): 100%
Setaria viridis [10]; Dosage 320 g/ha
  SETVI pre-emergence efficacy (herbicidal activity): 100%
Stellaria media [11]; Dosage 80 g/ha
  STEME pre-emergence efficacy (herbicidal activity): 100%
Stellaria media [11]; Dosage 320 g/ha
  STEME pre-emergence efficacy (herbicidal activity): 100%
Veronica persica [12]; Dosage 80 g/ha
  VERPE pre-emergence efficacy (herbicidal activity): 100%
Veronica persica [12]; Dosage 320 g/ha
  VERPE pre-emergence efficacy (herbicidal activity): 100%
Viola tricolor [13]; Dosage 80 g/ha
  VIOTR pre-emergence efficacy (herbicidal activity): 100%
Viola tricolor [13]; Dosage 320 g/ha
  VIOTR pre-emergence efficacy (herbicidal activity): 100%
Abutilon theophrasti [14]; 80 g/ha
  post-emergence efficacy ABUTH: 90%
Abutilon theophrasti [14]; 320 g/ha
  post-emergence efficacy ABUTH: 90%
Alopecurus myosuroides [15]; 80 g/ha
  post-emergence efficacy ALOMY: 70%
Alopecurus myosuroides [15]; 320 g/ha
  post-emergence efficacy ALOMY: 90%
Amaranthus retroflexus [16]; 80 g/ha
  post-emergence efficacy AMARE: 80%
Amaranthus retroflexus [16]; 320 g/ha
  post-emergence efficacy AMARE: 90%
Avena fatua [17]; 80 g/ha
  post-emergence efficacy AVEFA: 70%
Avena fatua [17]; 320 g/ha
  post-emergence efficacy AVEFA: 100%
Echinochloa crus-galli [18]; 80 g/ha
  post-emergence efficacy ECHCG: 90%
Echinochloa crus-galli [18]; 320 g/ha
  post-emergence efficacy ECHCG: 100%
Ipomoea purpurea [19]; 80 g/ha
  post-emergence efficacy PHBPU: 80%
Ipomoea purpurea [19]; 320 g/ha
  post-emergence efficacy PHBPU: 90%
Lolium multiflorum [20]; 80 g/ha
  post-emergence efficacy LOLMU: 100%
Lolium multiflorum [20]; 320 g/ha
  post-emergence efficacy LOLMU: 100%
Matricaria inodora [21]; 80 g/ha
  post-emergence efficacy MATIN: 90%
Matricaria inodora [21]; 320 g/ha
  post-emergence efficacy MATIN: 90%
Polygonum convolvulus [22]; 80 g/ha
  post-emergence efficacy POLCO: 60%
Polygonum convolvulus [22]; 320 g/ha
  post-emergence efficacy POLCO: 80%
Setaria viridis [23]; 80 g/ha
  post-emergence efficacy SETVI: 90%
Setaria viridis [23]; 320 g/ha
  post-emergence efficacy SETVI: 90%
Stellaria media [24]; 80 g/ha
  post-emergence efficacy STEME: 80%
Stellaria media [24]; 320 g/ha
  post-emergence efficacy STEME: 100%
Veronica persica [25]; 320 g/ha
  post-emergence efficacy VERPE: 100%
Viola tricolor [26]; 80 g/ha
  post-emergence efficacy VIOTR: 90%
Viola tricolor [26]; 320 g/ha
  post-emergence efficacy VIOTR: 90%
logP (HCOOH); HCOOH
  logP (HCOOH): oily; logP (HCOOH): 2.02; 1H NMR (CDCl3, 400 MHZ, δ in ppm): 2.10 (m, 1H, 1H of

## Cc1cc2c(o1)CC(C)(C)CC2Nc1ncc(C(F)(F)F)c(N)n1 (stereo not shown) [compound 21, 5-(Trifluoromethyl)-N2-(2,6,6-trimethyl-4,5,6,7-tetrahydro-1-benzofuran-4-yl)pyrimidine-2,4-diamine]
logP (HCOOH)
  chromatographic logP: 2.23
other
  melting point: 182.6 °C

## Cc1cc2c(s1)CCC[C@H]2Nc1ncc(C(F)(F)F)c(N)n1 [compound 47, N2-[(4R)-2-Methyl-4,5,6,7-tetrahydrobenzothiophen-4-yl]-5-(trifluoromethyl)pyrimidine-2,4-diamine]
Abutilon theophrasti [1]; Dosage 80 g/ha
  ABUTH pre-emergence efficacy (herbicidal activity): 80%
Abutilon theophrasti [1]; Dosage 320 g/ha
  ABUTH pre-emergence efficacy (herbicidal activity): 100%
Alopecurus myosuroides [2]; Dosage 80 g/ha
  ALOMY pre-emergence efficacy (herbicidal activity): 80%
Alopecurus myosuroides [2]; Dosage 320 g/ha
  ALOMY pre-emergence efficacy (herbicidal activity): 100%
Amaranthus retroflexus [3]; Dosage 80 g/ha
  AMARE pre-emergence efficacy (herbicidal activity): 100%
Amaranthus retroflexus [3]; Dosage 320 g/ha
  AMARE pre-emergence efficacy (herbicidal activity): 100%
Avena fatua [4]
  AVEFA pre-emergence efficacy (herbicidal activity): 100%
Cyperus esculentus
  CYPES pre-emergence efficacy (herbicidal activity): 80%
Echinochloa crus-galli [5]; Dosage 80 g/ha
  ECHCG pre-emergence efficacy (herbicidal activity): 100%
Echinochloa crus-galli [5]; Dosage 320 g/ha
  ECHCG pre-emergence efficacy (herbicidal activity): 100%
Ipomoea purpurea [6]; Dosage 80 g/ha
  PHBPU pre-emergence efficacy (herbicidal activity): 100%
Ipomoea purpurea [6]; Dosage 320 g/ha
  PHBPU pre-emergence efficacy (herbicidal activity): 100%
Lolium multiflorum [7]; Dosage 320 g/ha
  LOLMU pre-emergence efficacy (herbicidal activity): 100%
Matricaria inodora [8]; Dosage 80 g/ha
  MATIN pre-emergence efficacy (herbicidal activity): 100%
Matricaria inodora [8]; Dosage 320 g/ha
  MATIN pre-emergence efficacy (herbicidal activity): 100%
Polygonum convolvulus [9]; Dosage 80 g/ha
  POLCO pre-emergence efficacy (herbicidal activity): 100%
Polygonum convolvulus [9]; Dosage 320 g/ha
  POLCO pre-emergence efficacy (herbicidal activity): 100%
Setaria viridis [10]; Dosage 80 g/ha
  SETVI pre-emergence efficacy (herbicidal activity): 100%
Setaria viridis [10]; Dosage 320 g/ha
  SETVI pre-emergence efficacy (herbicidal activity): 100%
Stellaria media [11]; Dosage 80 g/ha
  STEME pre-emergence efficacy (herbicidal activity): 100%
Stellaria media [11]; Dosage 320 g/ha
  STEME pre-emergence efficacy (herbicidal activity): 100%
Veronica persica [12]; Dosage 80 g/ha
  VERPE pre-emergence efficacy (herbicidal activity): 100%
Veronica persica [12]; Dosage 320 g/ha
  VERPE pre-emergence efficacy (herbicidal activity): 100%
Viola tricolor [13]; Dosage 80 g/ha
  VIOTR pre-emergence efficacy (herbicidal activity): 100%
Viola tricolor [13]; Dosage 320 g/ha
  VIOTR pre-emergence efficacy (herbicidal activity): 100%
Abutilon theophrasti [14]; 80 g/ha
  post-emergence efficacy ABUTH: 90%
Abutilon theophrasti [14]; 320 g/ha
  post-emergence efficacy ABUTH: 90%
Alopecurus myosuroides [15]; 320 g/ha
  post-emergence efficacy ALOMY: 100%
Amaranthus retroflexus [16]; 320 g/ha
  post-emergence efficacy AMARE: 90%
Avena fatua [17]; 80 g/ha
  post-emergence efficacy AVEFA: 100%
Avena fatua [17]; 320 g/ha
  post-emergence efficacy AVEFA: 90%
Echinochloa crus-galli [18]; 80 g/ha
  post-emergence efficacy ECHCG: 100%
Echinochloa crus-galli [18]; 320 g/ha
  post-emergence efficacy ECHCG: 100%
Ipomoea purpurea [19]; 80 g/ha
  post-emergence efficacy PHBPU: 100%
Ipomoea purpurea [19]; 320 g/ha
  post-emergence efficacy PHBPU: 100%
Lolium multiflorum [20]; 320 g/ha
  post-emergence efficacy LOLMU: 80%
Matricaria inodora [21]; 80 g/ha
  post-emergence efficacy MATIN: 90%
Matricaria inodora [21]; 320 g/ha
  post-emergence efficacy MATIN: 100%
Polygonum convolvulus [22]; 80 g/ha
  post-emergence efficacy POLCO: 80%
Polygonum convolvulus [22]; 320 g/ha
  post-emergence efficacy POLCO: 80%
Setaria viridis [23]; 80 g/ha
  post-emergence efficacy SETVI: 90%
Setaria viridis [23]; 320 g/ha
  post-emergence efficacy SETVI: 90%
Stellaria media [24]; 80 g/ha
  post-emergence efficacy STEME: 100%
Stellaria media [24]; 320 g/ha
  post-emergence efficacy STEME: 100%
Veronica persica [25]; 80 g/ha
  post-emergence efficacy VERPE: 100%
Viola tricolor [26]; 80 g/ha
  post-emergence efficacy VIOTR: 100%
Viola tricolor [26]; 320 g/ha
  post-emergence efficacy VIOTR: 100%
logP (HCOOH)
  chromatographic logP: 2.62
